# Values quoted from earlier work, collected in patent US20150291659A1, “SOLOMONAMIDE ANALOGUE COMPOUNDS, PHARMACEUTICALS CONTAINING SOLOMONAMIDE ANALOGUE COMPOUNDS, AND PROCESSES FOR THE PREPARATION THEREOF” (COUNCIL OF SCIENTIFIC AND INDUSTRIAL RESEARCH, priority 2012, published 2015).
# Test system: carrageenan induced paw edema
# Settings: carrageenan induced paw edema model, animal-models, 100 μg/kg
smiles,measurement,value
C[C@@H]1C(=O)NCC(=O)N[C@H](C)C(=O)Nc2cc(O)ccc2C(=O)[C@H](O)[C@@H](NC(=O)[C@@H](N)CO)[C@@H]1O [Solomonamide A],reduction of inflammation,~60%
